# Experimental data reported in patent publication US8158580B2, “Pharmaceutical compositions containing a glycopeptide antibiotic and a cyclodextrin” (Theravance, Inc., priority 2000, dated 2012).
# Read-outs that look alike come from different tables or passages of the source.
# Conditions: female rats; for BUN / Creatinine: 50 mg/kg intravenous infusion, serum at 24 hours; for % Recovered (as unchanged parent) Kidney / % Recovered (as unchanged parent) Liver / % Recovered (as unchanged parent) Urine / Serum Conc.: 2-minute intravenous infusion, 24 hours, Mean (SD)
# Procedure: Female Sprague-Dawley rates (three per group) were dosed with Compound A (50 mg/kg) formulated in either hydroxypropyl-β-cyclodextrin or 5% dextrose/water or vehicle. The indicated doses were administered in a volume of 10 mL/kg via a 2-minute intravenous infusion. At 24 hours, the animals were sacrificed and serum and tissue samples collected.
# [1] = formulation 1% (w/v) CD (hydroxypropyl-β-cyclodextrin)
# [2] = formulation 1% CD (hydroxypropyl-β-cyclodextrin), 50 mg/kg
# [3] = formulation 5% (w/v) CD (hydroxypropyl-β-cyclodextrin)
# [4] = formulation 5% CD (hydroxypropyl-β-cyclodextrin), 50 mg/kg
# [5] = formulation 25% (w/v) CD (hydroxypropyl-β-cyclodextrin)
# [6] = formulation 25% CD (hydroxypropyl-β-cyclodextrin), 50 mg/kg
# [7] = formulation D5W (aqueous 5% dextrose solution, no cyclodextrin)
# [8] = formulation D5W (aqueous 5% dextrose solution, no cyclodextrin), 50 mg/kg
# [9] = formulations containing a cyclodextrin compared with formulation without, 50 mg/kg
smiles,measurement,setting,value
CCCCCCCCCCNCCNC1(C)CC(OC2C(Oc3c4cc5cc3Oc3ccc(cc3Cl)C(O)C3NC(=O)C(NC(=O)C5NC(=O)C(CC(N)=O)NC(=O)C(NC(=O)C(CC(C)C)NC)C(O)c5ccc(c(Cl)c5)O4)c4ccc(O)c(c4)-c4c(cc(O)c(CNCP(=O)(O)O)c4O)C(C(=O)O)NC3=O)OC(CO)C(O)C2O)OC(C)C1O (centres unmarked) [Compound A],BUN,[1],26 ± 5 mg/dL
same,Creatinine,[1],0.34 ± 0.08 mg/dL
same,% Recovered (as unchanged parent) Kidney,[2],5.68 (2.49) %
same,% Recovered (as unchanged parent) Liver,[2],8.47 (0.46) %
same,% Recovered (as unchanged parent) Urine,[2],17.45 (6.92) %
same,Serum Conc.,[2],17.1 (12.1) μg/mL
same,BUN,[3],18 ± 5 mg/dL
same,Creatinine,[3],0.31 ± 0.07 mg/dL
same,% Recovered (as unchanged parent) Kidney,[4],2.08 (0.43) %
same,% Recovered (as unchanged parent) Liver,[4],4.89 (0.81) %
same,% Recovered (as unchanged parent) Urine,[4],40.51 (18.57) %
same,Serum Conc.,[4],1.66 (0.33) μg/mL
same,BUN,[5],13 ± 2 mg/dL
same,Creatinine,[5],0.26 ± 0.02 mg/dL
same,% Recovered (as unchanged parent) Kidney,[6],0.62 (0.12) %
same,% Recovered (as unchanged parent) Liver,[6],1.90 (0.32) %
same,% Recovered (as unchanged parent) Urine,[6],90.91 (8.39) %
same,Serum Conc.,[6],0.86 (0.19) μg/mL
same,BUN,[7],67 ± 2 mg/dL
same,Creatinine,[7],0.72 ± 0.08 mg/dL
same,% Recovered (as unchanged parent) Kidney,[8],17.82 (4.94) %
same,% Recovered (as unchanged parent) Liver,[8],14.19 (3.41) %
same,% Recovered (as unchanged parent) Urine,[8],12.61 (4.60) %
same,Serum Conc.,[8],59.8 (27.1) μg/mL
same,liver and kidney accumulation,[9],significantly lower
same,urinary recovery,[9],significantly higher
